Data reported in patent US7514582B2, “2′-substituted 1,1′-biphenyl-2-carboxamides, processes for their preparation, their use as medicaments, and pharmaceutical preparations comprising them” (Sanofi-Aventis Deutschland GmbH, priority 1999, dated 2009).

What follows are molecules tested against T1, Kv1.5 channels from humans (Homo sapiens, UniProt P22460) (assay: Kv1.5 currents in Xenopus oocytes, two-microelectrode voltage clamp). Conditions: not given.
T1 construct: expressed in transfected cells; host or cells: Xenopus laevis oocytes injected with in vitro synthesized RNA
Type: cell-based
Procedure: Kv1.5 channels from humans were expressed in Xenopus oocytes. For this, oocytes from Xenopus laevis were first isolated and defolliculated. RNA encoding Kv1.5 synthesized in vitro was then injected into these oocytes. After Kv1.5 protein expression for 1-7days, Kv1.5 currents were measured on the oocytes using the two-microelectrode voltage clamp technique. The Kv1.5 channels were in this case as a rule activated using voltage jumps to 0 mV and 40 mV lasting 500 ms. The bath was rinsed with a solution of the following composition: NaCl 96 mM, KCl 2 mM, CaCl2 1.8 mM, MgCl2 1 mM, HEPES 5 mM (titrated with NaOH to pH 7.4). These experiments were carried out at room temperature. The following were employed for data acquisition and analysis: Genedamp amplifier (Axon Instruments, Foster City, USA) and MacLab D/A converter and software (AD Instruments, Castle Hill, Australia). The substances according to the invention were tested by adding them in different concentrations to the bath solution. The effects of the substances were calculated as the percentage inhibition of the Kv1.5 control current which was obtained when no substance was added to the solution. The data were then extrapolated using the Hill equation in order to determine the inhibitory concentration IC50 for the respective substances.

T1 sequence (P22460 whole entry): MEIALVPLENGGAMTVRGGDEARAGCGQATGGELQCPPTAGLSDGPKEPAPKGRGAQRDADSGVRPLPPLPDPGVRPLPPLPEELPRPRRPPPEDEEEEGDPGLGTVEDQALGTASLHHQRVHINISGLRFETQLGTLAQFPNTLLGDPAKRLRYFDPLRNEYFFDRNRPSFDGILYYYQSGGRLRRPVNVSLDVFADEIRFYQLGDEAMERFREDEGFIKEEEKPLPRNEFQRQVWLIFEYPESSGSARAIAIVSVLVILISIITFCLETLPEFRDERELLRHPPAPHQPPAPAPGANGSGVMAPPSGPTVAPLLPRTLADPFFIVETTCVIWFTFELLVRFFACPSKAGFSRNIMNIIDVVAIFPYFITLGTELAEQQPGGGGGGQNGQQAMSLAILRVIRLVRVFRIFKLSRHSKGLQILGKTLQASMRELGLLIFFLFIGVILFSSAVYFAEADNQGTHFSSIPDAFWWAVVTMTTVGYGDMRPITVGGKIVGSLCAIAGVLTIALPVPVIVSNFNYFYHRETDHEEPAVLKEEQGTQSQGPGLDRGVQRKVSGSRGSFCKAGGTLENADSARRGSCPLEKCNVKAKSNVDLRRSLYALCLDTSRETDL

| SMILES | IC50 [nM] |
| --- | --- |
| O=C(NCc1ccccc1-c1ccccc1C(=O)NCCc1ccccc1)OCc1ccc(C(F)(F)F)cc1 [1 a] | 6100 |
| O=C(NCc1ccccc1-c1ccccc1C(=O)NCCc1ccccc1)OCc1ccccc1 [1 b] | 3300 |
| C[C@@H](OC(=O)NCc1ccccc1-c1ccccc1C(=O)NCCc1ccccn1)c1ccc(C(F)(F)F)cc1 [1 h] | 4300 |
| C[C@@H](OC(=O)NCc1ccccc1-c1ccccc1C(=O)NCc1ccc(F)cc1F)c1ccccc1 [1 o] | 4400 |
| CC(C)CCNC(=O)c1ccccc1-c1ccccc1CNC(=O)OCc1ccccc1Cl [2 e] | 3400 |
| COC(=O)c1ccc(OC(=O)NCc2ccccc2-c2ccccc2C(=O)NCCC(C)C)cc1 [2 h] | 2500 |
| CC(C)(C)COC(=O)NCc1ccccc1-c1ccccc1C(=O)NCCc1ccccc1 [2 i] | 3300 |
| O=C(NCc1ccccc1-c1ccccc1C(=O)NCc1ccc(F)cc1F)Oc1ccc(F)cc1 [2 j] | 2500 |
| O=C(NCc1ccccc1-c1ccccc1C(=O)NCc1ccc(F)cc1F)Oc1ccccc1 [2 k] | 3800 |
| COc1ccc(CC(=O)NCc2ccccc2-c2ccccc2C(=O)Nc2ccc(OC)cc2)cc1 [4 g] | 3400 |
| COc1ccc(CC(=O)NCc2ccccc2-c2ccccc2C(=O)NCCc2ccncc2)cc1 [4 j] | 7100 |
| O=C(NCc1ccccc1)NCc1ccccc1-c1ccccc1C(=O)NCCc1ccccn1 [5 c] | 7800 |
| C[C@@H](NC(=O)NCc1ccccc1-c1ccccc1C(=O)NCCc1ccccn1)c1ccccc1 [5 e] | 7200 |
| CN(Cc1ccccc1)C(=O)c1ccccc1-c1ccccc1CNC(=O)OCc1ccccc1 [6 a] | 4400 |
| CCCCN(CCCC)C(=O)c1ccccc1-c1ccccc1CNC(=O)OCc1ccccc1 [6 e] | 3600 |
| O=C(NCc1ccccc1-c1ccccc1C(=O)NCCc1cccc[n+]1[O-])OCc1ccccc1 [7 a] | ~6000 |

| SMILES | IC50 [nM] |
| --- | --- |
| CC(C)(C)OC(=O)NCc1ccccc1-c1ccccc1C(=O)NCc1ccccn1 [8 d] | 6400 |
| CC(C)(C)OC(=O)NCc1ccccc1-c1ccccc1C(=O)Nc1ccc(F)cc1 [8 k] | 3100 |
| CC(C)(C)OC(=O)NCc1ccccc1-c1ccccc1C(=O)N[C@@H](CO)Cc1ccccc1 [8 m] | 5200 |
| COC(=O)C(Cc1ccccn1)NC(=O)c1ccccc1-c1ccccc1CNC(=O)OC(C)(C)C (stereo not drawn) [8 n] | 3700 |
| CC(C)(C)OC(=O)NCc1ccccc1-c1ccccc1C(=O)NCCc1ccccn1 [8 o] | 8400 |
| CCN(Cc1ccncc1)C(=O)c1ccccc1-c1ccccc1CNC(=O)OCc1ccccc1 [8 q] | 7300 |
| CN(C)c1ccc(CNC(=O)c2ccccc2-c2ccccc2CNC(=O)OCc2ccccc2)cc1 [8 x] | 3300 |
| O=C(NCc1ccccc1-c1ccccc1C(=O)NCCc1ccccn1)Nc1ccc(F)cc1F [11 b] | 7300 |
| COCCNC(=O)c1ccccc1-c1ccccc1CNC(=O)Nc1ccc(Cl)cc1 [11 g] | 7800 |
| O=C(NCc1ccccc1-c1ccccc1C(=O)NCCc1ccccn1)Nc1ccc(C(F)(F)F)cc1 [11 m] | 3300 |
| O=C(NCc1ccccc1-c1ccccc1C(=O)NCc1ccccn1)Nc1ccc(F)cc1F [11 n] | 5900 |
| O=C(NCc1ccccc1-c1ccccc1C(=O)NCCc1ccccn1)Nc1cccc(C(F)(F)F)c1 [11 o] | 4400 |
| O=C(NCc1ccccc1-c1ccccc1C(=O)NCCOc1ccccc1)Nc1ccc(F)cc1F [11 p] | 7300 |
| Cc1cccc(S(=O)(=O)NCc2ccccc2-c2ccccc2C(=O)N[C@@H](Cc2ccccc2)C(N)=O)c1 [12 f] | 11300 |
| COc1ccc(C(=O)NCc2ccccc2-c2ccccc2C(=O)N[C@@H](CC(C)C)C(=O)NCC(F)(F)F)cc1 [13 f] | 3400 |

More lines, now with the values ahead:

| IC50 [nM] | SMILES |
| --- | --- |
| 400 | CC(OC(=O)NCc1ccccc1-c1ccccc1C(=O)NCCc1ccccn1)c1ccc(C(F)(F)F)cc1 (racemic) [1 f] |
| 1000 | O=C(NCc1ccccc1-c1ccccc1C(=O)NCCc1ccccn1)OCc1ccc(C(F)(F)F)cc1 [1 d] |
| 500 | O=C(NCc1ccccc1-c1ccccc1C(=O)NCCc1ccccn1)OCc1ccc(F)cc1 [1 e] |
| 400 | C[C@H](OC(=O)NCc1ccccc1-c1ccccc1C(=O)NCCc1ccccn1)c1ccc(C(F)(F)F)cc1 [1 g] |
| 1700 | O=C(NCc1ccccc1-c1ccccc1C(=O)NCCc1ccccn1)OCCCC(F)(F)F [1 i] |
| 1400 | CC(OC(=O)NCc1ccccc1-c1ccccc1C(=O)NCCc1ccccn1)c1ccccc1C(F)(F)F (stereo not drawn) [1 l] |
| 700 | CC(OC(=O)NCc1ccccc1-c1ccccc1C(=O)NCCc1ccccn1)c1cccc(C(F)(F)F)c1 (stereo not drawn) [1 m] |
| 1400 | CC(OC(=O)NCc1ccccc1-c1ccccc1C(=O)NCCc1ccccn1)c1c(F)cccc1F (stereo not drawn) [1 n] |
| 800 | CCC[C@H](OC(=O)NCc1ccccc1-c1ccccc1C(=O)NCCc1ccccn1)c1ccccc1 [1 r] |
| 1700 | O=C(NCc1ccccc1-c1ccccc1C(=O)NCc1ccc(F)cc1F)OCc1ccc(F)cc1 [1 s] |
| 1300 | O=C(NCc1ccccc1-c1ccccc1C(=O)NCc1ccc(F)cc1F)OCCCC(F)(F)F [1 t] |
| 800 | O=C(NCc1ccccc1-c1ccccc1C(=O)NCc1ccccn1)OCc1ccccc1 [1 u] |
| 1700 | CCCCOC(=O)NCc1ccccc1-c1ccccc1C(=O)NCCC(C)C [2 d] |
| 1700 | O=C(NCCc1ccccc1)c1ccccc1-c1ccccc1CNS(=O)(=O)c1ccccc1 [3 d] |
| 2400 | O=C(NCc1ccccc1)c1ccccc1-c1ccccc1CNS(=O)(=O)c1cccc(F)c1 [3 k] |
| 1900 | O=C(NCCc1ccccn1)c1ccccc1-c1ccccc1CNS(=O)(=O)c1ccccc1 [3 p] |
| 1500 | O=C(NCCc1ccccn1)c1ccccc1-c1ccccc1CNS(=O)(=O)c1cccc(F)c1 [3 r] |
| 1800 | COc1ccc(CC(=O)NCc2ccccc2-c2ccccc2C(=O)NCCc2ccccn2)cc1 [4 d] |
| 1800 | COc1ccc(NC(=O)c2ccccc2-c2ccccc2CNC(=O)CCc2ccccc2)cc1 [4 h] |
| 2200 | CCOc1ccc(CCC(=O)NCc2ccccc2-c2ccccc2C(=O)NCCc2ccccn2)cc1 [4 k] |
| 800 | CC(CC(=O)NCc1ccccc1-c1ccccc1C(=O)NCCc1ccccn1)c1ccccc1 (stereo not drawn) [4 l] |

| IC50 [nM] | SMILES |
| --- | --- |
| 1900 | C[C@H](NC(=O)NCc1ccccc1-c1ccccc1C(=O)NCCc1ccccn1)c1ccccc1 [5 d] |
| 1800 | O=C(NCc1ccccc1-c1ccccc1C(=O)NC1CCCCC1)OCc1ccccc1 [6 b] |
| 2500 | O=C(NCc1ccccc1-c1ccccc1C(=O)Nc1ccccc1)OCc1ccccc1 [6 c] |
| 3100 | CN(CCc1ccccn1)C(=O)c1ccccc1-c1ccccc1CNC(=O)OCc1ccccc1 [6 d] |
| 3000 | O=C(NCc1ccccc1-c1ccccc1C(=O)NCC(F)(F)F)OCc1ccccc1 [6 h] |
| 800 | O=C(NCc1ccccc1-c1ccccc1C(=O)NCCc1cccnc1)OCc1ccccc1 [8 aa] |
| 1200 | O=C(NCc1ccccc1-c1ccccc1C(=O)NCCc1ccncc1)OCc1ccccc1 [8 ab] |
| 1100 | CC(C)C[C@@H](NC(=O)c1ccccc1-c1ccccc1CNC(=O)OCc1ccccc1)C(N)=O [8 ac] |
| 900 | COC(=O)[C@H](Cc1ccccc1)NC(=O)c1ccccc1-c1ccccc1CNC(=O)OCc1ccccc1 [8 b] |
| 1400 | CC(C)C(NC(=O)c1ccccc1-c1ccccc1CNC(=O)OCc1ccccc1)C(N)=O (stereo not drawn) [8 p] |
| 1000 | COC(=O)C(CC(C)C)NC(=O)c1ccccc1-c1ccccc1CNC(=O)OCc1ccccc1 (stereo not drawn) [8 r] |
| 1000 | O=C(NCc1ccccc1-c1ccccc1C(=O)NCCCC(F)(F)F)OCc1ccccc1 [8 s] |
| 2800 | CC(C)NC(=O)CNC(=O)c1ccccc1-c1ccccc1CNC(=O)OCc1ccccc1 [8 y] |
| 1600 | COC(=O)C(Cc1ccccn1)NC(=O)c1ccccc1-c1ccccc1CNC(=O)OCc1ccccc1 (stereo not drawn) [8 z] |
| 2000 | O=C(NCCc1ccccn1)c1ccccc1-c1ccccc1CNC(=S)Nc1ccccc1 [9 c] |
| 2200 | O=C(NCCc1ccccn1)c1ccccc1-c1ccccc1CNC(=S)NCc1ccccc1 [9 f] |
| ~3000 | CC(C)C[C@H](NC(=O)c1ccccc1-c1ccccc1CNC(=O)OCc1ccccc1)C(=O)Nc1ccccc1 [13 b] |
| 1400 | CC(C)C[C@H](NC(=O)c1ccccc1-c1ccccc1CNC(=O)OCc1ccccc1)C(=O)NCc1ccccc1 [13 c] |
| 500 | CC(C)C[C@H](NC(=O)c1ccccc1-c1ccccc1CNC(=O)OCc1ccccc1)C(=O)NCC(F)(F)F [13 d] |
| 2800 | CC(C)CCNC(=O)[C@H](CC(C)C)NC(=O)c1ccccc1-c1ccccc1CNC(=O)OCc1ccccc1 [13 e] |
| 1100 | CC(C)C[C@H](NC(=O)c1ccccc1-c1ccccc1CNC(=O)CCc1ccccc1)C(=O)NCC(F)(F)F [13 g] |

Same assay, conditions: human Kv1.5 expressed in Xenopus laevis oocytes; voltage jumps to 0 mV and 40 mV, 500 ms; room temperature; inhibition of Kv1.5 control current, Hill equation

| IC50 [nM] | SMILES |
| --- | --- |
| 2200 | O=C(NCc1ccccn1)c1ccccc1-c1ccccc1CNC(=S)NCCc1ccccc1 [9 g] |
| 2300 | COc1ccc(NC(=O)NCc2ccccc2-c2ccccc2C(=O)NCCc2ccccn2)cc1 [11 a] |
| 3300 | O=C(NCc1ccccc1-c1ccccc1C(=O)NCc1ccccn1)Nc1ccc(C(F)(F)F)cc1 [11 d] |
| 5800 | COc1cc(CNC(=O)c2ccccc2-c2ccccc2CNC(=O)Nc2ccc(F)cc2F)cc(OC)c1OC [11 h] |
| 2700 | O=C(NCc1ccccc1-c1ccccc1C(=O)NCCc1ccccn1)Nc1ccc(Cl)cc1 [11 l] |
